What was measured:
miR-9 [1] = assay: qRT-PCR of miR-9 in MPC-5 treated with AFB1; assay type: cell-based
Method: • (1) glomeruli (n=6) were treated with AFB1 of 0.75 mg/kg at 0, 2, and 4 weeks; • (2) MPC-5 (n=6) was treated with AFB1 of 5, 10, and 20μ M; • (3) Relative expression levels of miR-9 in the glomeruli treated with (1) and in the MPC-5 treated with (2) were detected by adopting a qRT-PCR manner, respectively. u6 RNA was used as an internal reference for miRNA, a sequence of a forward primer of U6 gene was shown in SEQ ID NO.1 in Table 1, and a sequence of a reverse primer of U6 gene was shown in SEQ ID NO.2. A sequence of a forward primer of miR-9 was shown in SEQ ID NO.3, a sequence of a reverse primer of miR-9 was shown in SEQ ID NO.4, and a sequence of a primer of a stem-loop sequence that is used to increase a length of a miR-9 reverse transcription product was shown in SEQ ID No.45.

RelA [2] = assay: Western blot of RelA in MPC-5 cells treated with AFB1; assay type: cell-based
Method: To investigate whether RelA is involved in the reduction of the expression level of miR-9 in glomerular podocytes by AFB1, relative protein expression levels of RelA in glomeruli at 0, 2, and 4 weeks treated with AFB1 of 0.75 mg/kg, and MPC-5 cells treated with AFB1 of 5, 10, 20 uM were detected, respectively, by adopting a Western blot manner.

miR-9 [3] = conditions: mouse, in vivo, 0.75 mg/kg
RelA / miR-9 promoter = assay type: cell-based
RelA / TRIM7 = RelA / TRIM7 (Mus musculus, UniProt Q04207); assay type: cell-based
RelA [4] = biological target: RelA (Mus musculus, UniProt Q04207); assay: IP-MS of proteins interacting with RelA in MPC-5 cells; assay type: cell-based
Method: For the analysis of RelA-binding proteins, IP-MS was used to detect proteins interacting with RelA. After incubating THE MPC-5 cells with RelA antibody overnight at 4° C., MPC-5 lysates were mixed with Protein A/G agarose beads (Amersham Biosciences) and then sodium dodecyl sulfate-polyacrylamide gel electrophoresis (SDS-PAGE) analysis and Caumas blue staining were performed for isolation of target proteins. Then, protein samples were sent to Suzhou Mass-elife Biotechnology Co. Ltd (Suzhou, China) for further analysis. For liquid chromatography-mass spectrometry (LC-MS) analysis, proteins were re-solubilized in a mixture of acetonitrile and water, and sample data was analyzed using an ultra-high-performance liquid chromatography (UHPLC) system coupled to a high-resolution mass spectrometer in Mass-elife Biotech Co. Ltd. of Suzhou (Suzhou, China). Identified proteins were analyzed for abundance using Byonic 2.13.17 (Protein Metrics, California, USA) to retrieve MS raw files on the uniport human protein database.

RelA [5] = conditions: mouse, in vivo, 0.75 mg/kg
3′-UTR of CXCR4 gene = assay: luciferase reporter (pMIR) with CXCR4 3′-UTR, co-transfection in MPC-5 cells; assay type: cell-based; conditions: FIG. 1C
Source text: To validate the binding of miR-9 to the CXCR4 gene, 3′-UTR targeting sequences of a wild-type CXCR4 gene and a mutant-type CXCR4 gene (target site ACCAAAG was mutated to ACGGCGC) were constructed into a luciferase reporter vector pMIR to obtain recombinant luciferase reporter vectors of the wild-type and the mutant-type. Subsequently, miR-9 and negative control miRNAs (a sequence of a primer as shown in SEQ ID NO.7 and SEQ ID NO.8) were co-transfected with the recombinant luciferase reporter vector of the wild-type or the mutant type into MPC-5 cells, and results were as shown in FIG. 1C. […] The control miRNAs were unable to targetedly bind to either the 3′-UTR of the wild-type CXCR4 or the 3′-UTR of the mutant-type CXCR4, and the fluorescence values were […].

glomeruli = assay: rAAV9-CAG-GFP-miR-9 transfection of AFB1-treated mouse, glomeruli readouts; assay type: in vivo; conditions: miR-9 increased via rAAV9-CAG-GFP-miR-9
Method: Relevant agents include fluorescently labeled Gr-1 antibody (CST), fluorescently labeled IFN-γ antibody (CST) or CD86 antibody (fluorescent secondary antibody: goat anti-rabbit IgG) (Abcam) and CD68 antibody (fluorescently secondary antibody: goat anti-rabbit IgG) (Abcam), and the rest of the same agents as above.
To understand the ability of miR-9 in down-regulating the CXCR4/TXNIP/NLRP3 inflammatory vesicle pathway during podocytes inflammation induced by AFB1, a 4-week-old mouse was treated with AFB1 of 0.75 mg/kg, and rAAV9-CAG-GFP-miR-9 or CAG-GFP luciferase control vector was transfected into the treated mouse, and an expression level of miR-9 in glomeruli after transfection was detected by qRT-PCR.

Chain of RelA / TRIM7 (Q04207 whole entry, looked up): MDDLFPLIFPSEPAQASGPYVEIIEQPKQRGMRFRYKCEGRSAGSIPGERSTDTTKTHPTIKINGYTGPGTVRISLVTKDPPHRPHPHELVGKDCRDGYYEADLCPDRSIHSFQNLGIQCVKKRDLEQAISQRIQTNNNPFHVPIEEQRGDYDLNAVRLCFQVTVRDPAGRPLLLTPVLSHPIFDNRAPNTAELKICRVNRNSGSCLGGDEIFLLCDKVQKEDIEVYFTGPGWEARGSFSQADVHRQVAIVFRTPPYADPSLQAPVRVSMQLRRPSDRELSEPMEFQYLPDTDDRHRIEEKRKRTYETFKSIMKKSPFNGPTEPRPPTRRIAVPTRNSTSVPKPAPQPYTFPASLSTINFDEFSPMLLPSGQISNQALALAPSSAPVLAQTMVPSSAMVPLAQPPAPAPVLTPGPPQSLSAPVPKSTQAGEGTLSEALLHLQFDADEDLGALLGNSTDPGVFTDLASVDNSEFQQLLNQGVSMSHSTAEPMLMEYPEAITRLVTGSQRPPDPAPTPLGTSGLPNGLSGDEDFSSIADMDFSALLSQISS
Chain of RelA (Mus musculus, UniProt Q04207) (Q04207 whole entry, looked up): as above

Substance | expression level of miR-9 in cells (MPC-5) (miR-9 [1]) | p-RelA/RelA in MPC-5 cells (RelA [2]) | expression level of miR-9 in glomeruli (miR-9 [3]) | RelA binding in the miR-9 promoter region (RelA / miR-9 promoter) | binding of RelA and TRIM7 (RelA / TRIM7) | expression level of RelA protein (RelA / TRIM7) | ubiquitination of RelA (RelA / TRIM7) | TRIM7 among RelA-interacting proteins (RelA [4]) | p-RelA/RelA in glomeruli (RelA [5]) | luciferase fluorescence values, wild-type CXCR4 3′-UTR reporter (3′-UTR of CXCR4 gene; co-transfected into MPC-5 cells) | luciferase fluorescence values, mutant-type CXCR4 3′-UTR reporter (3′-UTR of CXCR4 gene; target site ACCAAAG mutated to ACGGCGC, MPC-5 cells) | secretion of IL-1β in glomeruli (glomeruli; AFB1-treated mouse, ELISA) | secretion of IL-6 in glomeruli (glomeruli; AFB1-treated mouse, ELISA) | secretion of TNF-α in glomeruli (glomeruli; AFB1-treated mouse, ELISA) | inflammatory cell infiltration in glomeruli (glomeruli; AFB1 for 4 weeks, HE staining and flow cytometry)
Aflatoxin B1 [AFB1] | significantly reduced | significant reduction | significantly reduced | reduced RelA binding | promoted the binding | down-regulated | increased the ubiquitination | significantly enriched | significant reduction | – | – | – | – | – | –
miR-9: mmu-miR-9-5p MIMAT0000142; nucleotide sequence shown in SEQ ID No. 5 (UCUUUGGUUAUCUAGCUGUAUGA; chemistry not given here) | – | – | – | – | – | – | – | – | – | relative decrease | unchanged | decreased secretion | decreased secretion | decreased secretion | attenuated inflammatory cell infiltration

Reference: patent publication US20240425865A1, “METHODS FOR TREATING CELLULAR INFLAMMATION INDUCED BY AFB1” (priority 2023, published 2024)
